Key:
Human PPARγ2 = target: T1, Human PPARγ2 (Homo sapiens, UniProt P37231); assay: [3H]AD-5075 displacement (receptor binding) assay; conditions: gst-fusion receptor, 10 nM [3H2]AD-5075, ~16 h at 4 °C
T1 construct: The full length human cDNA for PPARγ2 and PPARδ were subcloned into the PGEX-2T and PGEX-KT, respectively, expression vector; made in house; host or cells: E. coli (pGEX-2T vector, Pharmacia)
T1 sequence (P37231 1-505): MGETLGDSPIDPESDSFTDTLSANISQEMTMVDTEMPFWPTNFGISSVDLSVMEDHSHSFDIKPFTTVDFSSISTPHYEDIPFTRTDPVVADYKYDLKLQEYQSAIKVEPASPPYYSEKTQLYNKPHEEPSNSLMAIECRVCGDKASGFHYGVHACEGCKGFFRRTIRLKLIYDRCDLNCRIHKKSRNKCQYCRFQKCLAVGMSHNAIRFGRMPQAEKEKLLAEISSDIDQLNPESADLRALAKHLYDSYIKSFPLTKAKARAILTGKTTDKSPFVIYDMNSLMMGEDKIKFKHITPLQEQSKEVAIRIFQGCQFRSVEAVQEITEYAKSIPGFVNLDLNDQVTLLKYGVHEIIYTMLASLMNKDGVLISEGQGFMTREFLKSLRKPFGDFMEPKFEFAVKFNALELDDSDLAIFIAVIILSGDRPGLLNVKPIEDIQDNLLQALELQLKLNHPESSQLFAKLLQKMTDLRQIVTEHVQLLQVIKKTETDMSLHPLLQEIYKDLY
Protocol: Human PPARγ2 and PPARδ, independently, were prepared as gst-fusion proteins in E. coli. The full length human cDNA for PPARγ2 and PPARδ were subcloned into the PGEX-2T and PGEX-KT, respectively, expression vector (Pharmacia). E. coli containing the plasmid were grown, induced, and then harvested by centrifugation. The resuspended pellet was broken in a French press and debris was removed by centrifugation at 12,000Xg. Receptors were purified from the supernatant by affinity chromatography on glutathione sepharose. After application to the column, and 1 wash, receptor was eluted with glutathione. Glycerol was added to stabilize the receptor and aliquots were frozen at -80 °C for later use.
For each assay, an aliquot of receptor (1:1000-1:3000 dilution) was incubated in TEGM (10 mM Tris, pH 7.2, 1 mM EDTA, 10% glycerol, 7 µl/100 ml β-mercaptoethanol, 10 mM Na molybdate, 1 mM dithiothreitol, 5 µg/ml aprotinin, 2 µg/ml leupeptin, 2 µg/ml benzamide and 0.5 mM PMSF) containing 5-10% COS-1 cell cytoplasmic lysate and 10 nM labeled thiazolidinedione ([^3H2]AD-5075, 21 Ci/mmole), ± test compound compound, [^3H2]Example 11, 17 Ci/mmole), ± test compound, respectively. Assays were incubated for ∼16 h at 4 °C in a final volume of 300 µl. […] After centrifugation at 3000 rpm for 10 min at 4 °C, 200 µl of the supernatant fraction was counted in a liquid scintillation counter. […]

Human PPARδ = target: T2, Human PPARδ (Homo sapiens, UniProt Q03181); assay: [3H2]Example 11 displacement (receptor binding) assay; conditions: gst-fusion receptor, [3H2]Example 11, ~16 h at 4 °C
T2 construct: The full length human cDNA for PPARγ2 and PPARδ were subcloned into the PGEX-2T and PGEX-KT, respectively, expression vector; made in house; host or cells: E. coli (pGEX-KT vector, Pharmacia)
T2 sequence (Q03181 1-441): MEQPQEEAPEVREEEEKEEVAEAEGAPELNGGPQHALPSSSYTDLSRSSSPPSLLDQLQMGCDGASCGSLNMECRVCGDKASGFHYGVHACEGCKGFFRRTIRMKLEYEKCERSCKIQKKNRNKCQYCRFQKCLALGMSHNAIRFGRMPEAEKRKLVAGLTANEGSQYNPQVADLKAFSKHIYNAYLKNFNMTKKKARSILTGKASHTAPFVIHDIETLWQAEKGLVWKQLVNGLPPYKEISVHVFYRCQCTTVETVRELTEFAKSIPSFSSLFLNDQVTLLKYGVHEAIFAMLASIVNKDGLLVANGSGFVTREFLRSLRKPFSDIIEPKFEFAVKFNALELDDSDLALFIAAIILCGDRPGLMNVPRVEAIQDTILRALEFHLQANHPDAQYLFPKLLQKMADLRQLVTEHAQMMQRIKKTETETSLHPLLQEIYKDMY
Protocol: The hPPARδ binding assay comprises the steps of: • (a) preparing multiple test samples by incubating separate aliquots of the receptor hPPARδ with a test compound in TEGM containing 5-10% COS-1 cell cytoplasmic lysate and 2.5 nM labeled ([^3H2]Compound D, 17 Ci/mmole) for a minimum of 12 hours, and preferably for about 16 hours, at 4 °C, wherein the concentration of the test compound in each test sample is different, and preparing a control sample by incubating a further separate aliquot of the receptor hPPARδ under the same conditions but without the test compound; then • (b) removing unbound ligand by adding dextran/gelatin-coated charcoal to each sample while maintaining the samples at 4 °C and allowing at least 10 minutes to pass, then • (c) subjecting each of the test samples and the control sample from step (b) to centrifugation at 4 °C until the charcoal is pelleted; then • (d) counting a portion of the supernatant fraction of each of the test samples and the control sample from step (c) in a liquid scintillation counter and analyzing the results to determine the IC50 of the test compound.
Human PPARγ2 and PPARδ, independently, were prepared as gst-fusion proteins in E. coli. The full length human cDNA for PPARγ2 and PPARδ were subcloned into the PGEX-2T and PGEX-KT, respectively, expression vector (Pharmacia). […]

| Kd (Human PPARγ2) | SMILES | Kd (Human PPARδ) |
| --- | --- | --- |
| 1 nM | Cc1oc(-c2ccccc2)nc1C(O)COc1ccc(CC2SC(=O)NC2=O)cc1 (centres unmarked) [AD-5075] | – |
| – | CCCc1c(OCCC[S+]([O-])c2ccc(CC(=O)OC)cc2Cl)ccc2c(CC)noc12 (centres unmarked) [Example 11, Methyl 3-chloro-4-(3-(3-ethyl-7-propyl-6-benz-[4,5]-isoxazoloxy)-propylthio)phenylacetate S-oxide] | 1 nM |

— EP0882029B1, “HETEROCYCLIC DERIVATIVES AS ANTIDIABETIC AND ANTIOBESITY AGENTS” (MERCK & CO., INC., priority 1996, dated 1997)
